How the values were obtained:
[1] = tested on: H9; experiment: Concentration required to inhibit uninfected H9 cell growth by 50%; assay type: functional, cell-based; conditions: Homo sapiens
[2] = tested on: H9; experiment: Concentration required to inhibit HIV-1 replication by 50% in acutely infected H9 lymphocytes; NA means not active; assay type: functional, cell-based, Homo sapiens
[3] = Therapeutic index expressed as IC50/EC50; conditions: read-out: TI
[4] = tested on: H9; experiment: Concentration required to inhibit HIV-1 replication by 50% in acutely infected H9 lymphocytes; assay type: functional, cell-based; conditions: Homo sapiens

EC50 [2]	EC50 [4] [µM]	SMILES	IC50 [1] [µM]	selectivity ratio [3]
Not Active		Cc1cc(=O)sc2c3c(ccc12)OC(C)(C)[C@H](O)[C@@H]3O	302	
Not Active		Cc1cc(=O)sc2c3c(ccc12)OC(C)(C)C=C3	339	
	0.000256	CC1(C)Oc2ccc3ccc(=O)oc3c2[C@@H](OC(=O)C23CCC(C)(C(=O)O2)C3(C)C)[C@H]1OC(=O)C12CCC(C)(C(=O)O1)C2(C)C (stereo not given in full)		137000
	120	Cc1cc(=O)sc2c3c(ccc12)OC(C)(C)[C@H](OC(=O)C12CCC(C)(C(=O)O1)C2(C)C)[C@@H]3OC(=O)C12CCC(C)(C(=O)O1)C2(C)C (stereo not given in full)	169	
	0.045	Cc1cn([C@H]2C[C@H](N=[N+]=[N-])[C@@H](CO)O2)c(=O)[nH]c1=O [ZIDOVUDINE]		

The remaining lines, values behind:

SMILES	EC50 [2]	EC50 [4] [µM]	IC50 [1] [µM]	selectivity ratio [3]
Cc1cc(=O)sc2c3c(ccc12)OC[C@H](OC(=O)C12CCC(C)(C(=O)O1)C2(C)C)[C@@H]3OC(=O)C12CCC(C)(C(=O)O1)C2(C)C (stereo not given in full)			194	62.3
Cc1cc(=O)sc2c3c(ccc12)OC[C@H](O)[C@@H]3O			340	11.1
Cc1cc(=O)sc2c3c(ccc12)OCC=C3			478	62.3

Source: ChEMBL document CHEMBL1137931, “Anti-AIDS agents. Part 58: synthesis and anti-HIV activity of 1-thia-di-O-(-)-camphanoyl-(+)-cis-khellactone (1-thia-DCK) analogues” (Bioorg Med Chem Lett, 2004)
